From patent US4665078A, “2-(3-amino-5-halo-2-pyridylalkylamino)-pyrimidones useful as histamine H1-antagonists” (Smith Kline & French Laboratories Limited, priority 1983, dated 1987) come the findings set out here.

Experiment [1] addresses T1, histamine H1-receptor (Cavia porcellus, UniProt P31389).
T1 construct: an isolated portion of the guinea pig ileum is secured under tension; from tissue; host or cells: isolated guinea pig ileum
Put plainly: guinea pig ileum test (in vitro histamine H1-antagonist activity). To be noted: isolated guinea pig ileum, histamine-induced contraction, 8 min contact, 30° C.; read-out: pA2 value (converted). The procedure:
In this test an isolated portion of the guinea pig ileum is secured under tension (500 mg) between an anchorage and a transducer in a 10 ml tissue bath and immersed in magnesium free Tyrode solution with constant aeration at a temperature of 30° C. The output from the transducer is amplified. The amplified output is in turn fed to a flat bed recorder. Measured amounts of histamine are added to the tissue bath so that the histamine concentration increases step-wise until the force of the contraction reaches a maximum. The tissue bath is washed out and filled with fresh magnesium free Tyrode solution containing compound under test. The solution is left in contact with the tissue for 8 min. and measured amounts of histamine are added again until a maximum contraction is recorded. The assay is repeated with increasing concentrations of test compound and the dose of histamine giving 50% of maximum contraction is noted. A dose ratio (DR) was calculated by comparing the concentrations of histamine required to produce 50% maximum response in the absence and in the presence of the antagonist. A plot of Log DR-1 against Log D (the concentration of compound under test) is made and the point of intersection with the Log (DR-1) ordinate is taken as the measure of the activity (pA2 value).

The target in another experiment is T2, histamine H2-receptor (Cavia porcellus, UniProt P47747).
T2 construct: a spontaneously beating isolated portion of the guinea pig right atrium is secured under tension; from tissue; host or cells: isolated guinea pig right atrium
T2 sequence (P47747 whole entry): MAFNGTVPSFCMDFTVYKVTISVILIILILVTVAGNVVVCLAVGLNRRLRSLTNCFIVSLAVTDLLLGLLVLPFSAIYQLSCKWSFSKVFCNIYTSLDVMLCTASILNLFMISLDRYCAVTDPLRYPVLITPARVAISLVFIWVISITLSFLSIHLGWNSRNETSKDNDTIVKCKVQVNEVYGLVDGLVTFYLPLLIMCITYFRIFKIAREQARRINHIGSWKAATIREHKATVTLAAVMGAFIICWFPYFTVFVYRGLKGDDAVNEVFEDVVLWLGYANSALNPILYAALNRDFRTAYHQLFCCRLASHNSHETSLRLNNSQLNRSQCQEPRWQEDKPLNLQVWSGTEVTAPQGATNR
Put plainly: guinea pig atrium test (in vitro histamine H2-antagonist activity). The following applies: isolated guinea pig right atrium, histamine-induced rate of beating, 60 min contact, 37° C.; read-out: pA2 value (converted). The method, then:
In this test a spontaneously beating isolated portion of the guinea pig right atrium is secured under tension (300 mg) between an anchorage and a transducer in a 15 ml tissue bath and immersed in McEwens solution with constant aeration at a temperature of 37° C. The output from the transducer is amplified. Output is in turn fed to a flat bed recorder. Measured amounts of histamine are added to the tissue bath so that the histamine concentration increases step-wise until the rate of beating reaches a maximum. The tissue bath is washed out and filled with fresh McEwens solution containing compound under test. The solution is left in contact with the tissue for 60 min. and measured amounts of histamine are added again until a maximum rate is recorded. The assay is repeated with increasing concentrations of test compound and the dose of histamine giving 50% of maximum rate is noted. A dose ratio (DR) was calculated by comparing the concentrations of histamine required to produce 50% maximum response in the absence and in the presence of the antagonist. A plot of Log DR-1 against Log D (the concentration of compound under test) is made and the point of intersection with the Log (DR-1) ordinate is taken as the measure of the activity (pA2 value).

Experiment [2] has as its target T1, histamine H1-receptor. Put plainly: inhibition of histamine induced bronchoconstriction in anaesthetised guinea pigs. It is filed as in vivo. The following applies: i.v., anaesthetised guinea pig, histamine curve 5 minutes after antagonist. The method, then:
Guinea pigs of either sex are anesthetised by intraperitoneal injection of sodium pentobarbitone, 90 mg/kg. The trachea is cannulated. The animal is respired artificially with a fixed volume of air just adequate to inflate the lungs. The pressure needed to inflate the lungs is monitored from the respiratory system using a low pressure transducer. Intranvenous injection of histamine causes dose-dependent increases in the pressure to inflate the lungs reflecting the bronchoconstrictor action of histamine. Responses to histamine can be antagonised using histamine H1 -receptor antagonists.
Dose-response curves to histamine are established at 20, 40, 80, 160 and 320 nmols/kg. Antagonists are then administered by intravenous injection and 5 minutes later a new histamine dose-response curve is established increasing the doses of histamine as necessary. The effect of the antagonist can be quantified by the displacement, to the right, of the histamine dose-response curve, expressed as a dose-ratio. A series of doses of antagonists may be given to each animal allowing calculation of dose-ratios for each dose of antagonist. The compounds of Examples 1 and 2 hereafter cause displacement of histamine dose-response curves with a dose-ratio of 10 at doses of less than 0.8 micromole kg^-1 i.v.

In experiment [3] the test system is histamine H1-receptor. Put plainly: inhibition of H1-agonist induced reduction of blood pressure in the anaesthetised cat. It is filed as in vivo. To be noted: intravenous (femoral veins), 2-(2-aminoethyl)pyridine-induced reduction in blood pressure. The procedure: Cats of either sex weighing between 2 and 3 kg were starved overnight and anaesthetised with sodium pentabarbitone (60 mg/kg i.p.). The trachea was cannulated and blood pressure was measured in a femoral artery. The compound under investigation was administered by cannulae in the right and left femoral veins. Anaesthetic was administered as required into one brachial vein. Dose-response curves were constructed by administering a standard H1 -agonist, 2-(2-aminoethyl)pyridine in increasing dose from 10^-8 mol/kg to 10^-5 mol/kg. The 2-(2-aminoethyl)pyridine-induced reduction in blood pressure was measured. The effect of the antagonists can be quantified by displacement of the 2-(2-aminoethyl)pyridine dose-response curve expressed as a dose-ratio. The compounds of Examples 1 and 2 caused displacement of the dose-responsecurves with a dose-ratio of 10 at doses of 0.06 and 0.0058 micromole/kg respectively.

T1 sequence (P31389 whole entry): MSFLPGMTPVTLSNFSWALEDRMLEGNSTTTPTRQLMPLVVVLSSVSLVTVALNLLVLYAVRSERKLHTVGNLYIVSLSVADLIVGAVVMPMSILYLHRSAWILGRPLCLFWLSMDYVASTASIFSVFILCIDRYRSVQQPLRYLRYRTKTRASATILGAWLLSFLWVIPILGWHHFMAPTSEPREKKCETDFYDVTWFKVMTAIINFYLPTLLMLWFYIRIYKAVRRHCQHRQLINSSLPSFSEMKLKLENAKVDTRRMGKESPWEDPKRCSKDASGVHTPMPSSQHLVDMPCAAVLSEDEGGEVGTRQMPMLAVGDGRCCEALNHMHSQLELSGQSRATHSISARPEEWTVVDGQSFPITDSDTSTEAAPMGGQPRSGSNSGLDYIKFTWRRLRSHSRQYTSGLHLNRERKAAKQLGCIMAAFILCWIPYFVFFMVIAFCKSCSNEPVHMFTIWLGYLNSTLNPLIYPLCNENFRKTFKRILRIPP

For `Cc1ccc(Cc2cnc(NCCCCc3ncc(Br)cc3N)[nH]c2=O)cn1` [Example 1, 2-[4-(5-bromo-3-aminopyrid-2-yl)butylamino]-5-(6-methylpyrid-3-ylmethyl) 4-pyrimidone], the Kb at histamine H1-receptor [1] is less than 10 nM; at histamine H2-receptor it was more than 1000 nM. Moreover, the “dose causing displacement of histamine dose-response curves with a dose-ratio of 10” value at histamine H1-receptor [2] is given as “less than 0.8 micromole kg^-1”. Moreover, the “dose causing displacement of the 2-(2-aminoethyl)pyridine dose-response curve with a dose-ratio of 10” value in the experiment on histamine H1-receptor [3] came out at 0.06 µmol/kg.

For `Cc1ccc(Cc2cnc(NCCCCc3ncc(Br)cc3C)[nH]c2=O)cn1` [2-[4-(5-bromo-3-methylpyrid-2-yl)butylamino]-5-(6-methylpyrid-3-ylmethyl)-4-pyrimidone, reference compound], the “dose causing displacement of the 2-(2-aminoethyl)pyridine dose-response curve with a dose-ratio of 10” value with histamine H1-receptor [3] was determined as 0.215 µmol/kg.

In the case of `Nc1cc(Br)cnc1CCCCNc1ncc(Cc2cc[n+]([O-])cc2)c(=O)[nH]1` [Example 2, 2-[4-(5-bromo-3-aminopyrid-2yl)butylamino]-5-(N-oxopyrid-4-ylmethyl)-4-pyrimidone], the Kb was less than 10 nM at histamine H1-receptor [1] and more than 1000 nM at histamine H2-receptor. The “dose causing displacement of histamine dose-response curves with a dose-ratio of 10” value at histamine H1-receptor [2] is on record as “less than 0.8 micromole kg^-1”. The “dose causing displacement of the 2-(2-aminoethyl)pyridine dose-response curve with a dose-ratio of 10” value with histamine H1-receptor [3] came to 0.0058 µmol/kg.
